What was measured:
Format in all cases: cell-based
[1] = tested on: MOLM-13; test: Proliferation inhibition (CellTiter-Glo) in MOLM-13 cells; settings: Homo sapiens, 96 h, MOLM-13 AML cells, heterozygous FLT3-ITD, IC50 (4 days)
Excerpt: (§1) The Proliferation Inhibitory Effect was Investigated in Human AML Cell Lines MOLM-13 (AddexBio: C0003003) [REF: Pubmed: 9305600] and MV-4-11 (ATCC: CRL-9591) [REF PMID: 3496132], and CML cell line […] (ATCC: CRL-3343) [REF PMID: 163658]. Molm-13 is heterozygous for FLT3-ITD mutation, while MV4-11 is homozygous for FLT3-ITD [PMID: 12529668]. […] Cells were maintained in RPMI-1640 medium (ThermoFisher catalog no. 61870036) supplemented with 10% of Heat Inactivated FBS (ThermoFisher catalog no.A31605) and 1% Pen-Strep (Thermofisher catalog no. 10378016) and cultured at 37° C. in a humidified incubator with 5% CO2. Cell lines were […], and the cells were maintained in a range 70%-80% confluency.
(§2) ATP is present in all metabolically active cells and is considered as a marker for cell viability and proliferation. Metabolic cell activity was determined using the CellTiter-Glo kit (Promega catalog no. G7572), an ATP monitoring system based on the production of luminescence by the reaction of ATP with added UltraGlo® recombinant luciferase (Kawano et al., 2016, PLOS One, 8; 11(7):e0158888), according to the supplier's experimental recommendations. The assay was based on a 96 well plate format.
(§3) Test compounds were dissolved at 10 mM in DMSO (Sigma catalog no. D8418; purity 299.9%) and stored at −20° C. Eight concentrations of test compound were assessed in duplicate in an individual test occasion in parallel in the selected cell lines. Gilteratinib and FF-10101 were used as reference compounds and tested in duplicate at eight concentrations. 100% of proliferation is represented by the untreated cells (0.2% DMSO).
(§4) On the day of the experiment (TO), cells were quantified with the cell viability analyser NucleoCounter (Chemometec NC-200) and diluted with fresh medium to obtain the cell density of about 10,000 cells per 200 μL medium. 200 μL of cell suspension were added into wells in the 96 well plate.
(§5) After 2 hours from seeding cells, compounds were added using a D300e compound dispenser (Life Sciences Tecan D300) at desired concentrations with shaking between each compound dispensed. Cell plates containing 200 μL/well suspension were incubated at 37° C. in a humidified incubator with […].
(§6) […] Contents were mixed for 5 min on an orbital shaker to induce cell lysis, and then incubated at room temperature for an additional 10 min in the dark to stabilize the luminescent signal. Luminescence was read by using a GloMax GM300 plate reader (Promega) using the luminescence for 96 well plate standard protocol.
(§7) Results were analysed by GraphPad (Prism) and IC50 values were calculated by non-linear regression using four parameter-logistic equation.

[2] = tested on: MV-4-11; test: Proliferation inhibition (CellTiter-Glo) in MV-4-11 cells; settings: Homo sapiens, MV4-11, 96 h, MV-4-11 AML cells, homozygous FLT3-ITD, IC50 (4 days)
Excerpt: as §1, §2, §3, §4, §5, §6, §7

[3] = tested on: K-562; test: Proliferation inhibition (CellTiter-Glo) in K-562 cells; settings: Homo sapiens, K562, 96 h, K-562 CML cells, no FLT3 mutations, IC50 (4 days)
Excerpt: as §1, §2, §3, §4, §5, §6, §7

| SMILES | IC50 [1] [nM] | IC50 [2] [nM] | IC50 [3] [nM] |
| --- | --- | --- | --- |
| CCc1nc(C(N)=O)c(Nc2cccc(OCCCNC(=O)[C@H](C)N(C)C(=O)/C=C/CN(C)C)c2)nc1OC [Compound 120, (S,E)-3-((3-(3-(2-(4-(dimethylamino)-N-methylbut-2-enamido)propanamido)propoxy)phenyl)amino)-6-ethyl-5-methoxypyrazine-2-carboxamide] | 1 to 10 | 1 to 10 | > 500 |
| C=CS(=O)(=O)NCCCCOc1cccc(Nc2nc(NC3CCOCC3)c(CC)nc2C(N)=O)c1 [Compound 2, 6-Ethyl-5-((tetrahydro-2H-pyran-4-yl)amino)-3-((3-(4-(vinylsulfonamido)butoxy)phenyl)amino)pyrazine-2-carboxamide] | 100 to 500 | 100 to 500 | > 500 |
| CCc1nc(C(N)=O)c(Nc2cccc(OCCCNC(=O)[C@H](C)N(C)C(=O)/C=C/CN(C)C)c2)nc1N(C)C1CCOCC1 [Compound 116, (S,E)-3-((3-(3-(2-(4-(dimethylamino)-N-methylbut-2-enamido)propanamido)propoxy)phenyl)amino)-6-ethyl-5-(methyl(tetrahydro-2H-pyran-4-yl)amino)pyrazine-2-carboxamide] | < 1 | < 1 | > 500 |
| CC#CC(=O)NCCNc1cc(Nc2nc(NC3CCOCC3)c(CC)nc2C(N)=O)ccn1 [Compound 22, 3-((2-((2-(But-2-ynamido)ethyl)amino)pyridin-4-yl)amino)-6-ethyl-5-((tetrahydro-2H-pyran-4-yl)amino)pyrazine-2-carboxamide] | 10 to 100 | 10 to 100 | > 500 |
| CCc1nc(C(N)=O)c(Nc2cccc(CCNC(=O)[C@H](C)N(C)C(=O)/C=C/CN(C)C)c2)nc1NC1CCOCC1 [Compound 135, (S,E)-3-((3-(2-(2-(4-(dimethylamino)-N-methylbut-2-enamido)propanamido)ethyl)phenyl)amino)-6-ethyl-5-((tetrahydro-2H-pyran-4-yl)amino)pyrazine-2-carboxamide] | < 1 | < 1 | > 500 |
| CCc1nc(C(=O)NC)c(Nc2cc(F)cc(OCCCNC(=O)C(C)N(C)C(=O)/C=C/CN(C)C)c2)nc1N(C)C (stereo not drawn) [Compound 151, (E)-5-(dimethylamino)-3-((3-(3-(2-(4-(dimethylamino)-N-methylbut-2-enamido)propanamido)propoxy)-5-fluorophenyl)amino)-6-ethyl-N-methylpyrazine-2-carboxamide] | > 500 | > 500 | > 500 |
| CCc1nc(C(N)=O)c(Nc2cccc(OCCCNC(=O)[C@H](C)N(C)C(=O)/C=C/CN(C)C)c2)nc1N1CCCC1 [Compound 142, (S,E)-3-((3-(3-(2-(4-(dimethylamino)-N-methylbut-2-enamido)propanamido)propoxy)phenyl)amino)-6-ethyl-5-(pyrrolidin-1-yl)pyrazine-2-carboxamide] | 1 to 10 | 1 to 10 | > 500 |
| C=CC(=O)NCCC#Cc1cccc(Nc2nc(NC3CCOCC3)c(CC)nc2C(N)=O)c1 [Compound 11, 3-((3-(4-Acrylamidobut-1-yn-1-yl)phenyl)amino)-6-ethyl-5-((tetrahydro-2H-pyran-4-yl)amino)pyrazine-2-carboxamide] | 10 to 100 | 10 to 100 | > 500 |
| CCc1nc(C(N)=O)c(Nc2cccc(OCCCNC(=O)[C@H](C)N(C)C(=O)/C=C/CN3CCC3)c2)nc1NC1CCOCC1 [Compound 134, (S,E)-3-((3-(3-(2-(4-(azetidin-1-yl)-N-methylbut-2-enamido)propanamido)propoxy)phenyl)amino)-6-ethyl-5-((tetrahydro-2H-pyran-4-yl)amino)pyrazine-2-carboxamide] | 1 to 10 | < 1 | > 500 |
| C=CC(=O)NCCC(=O)NCCc1cc(Nc2nc(NC3CCOCC3)c(CC)nc2C(N)=O)cc(OC)c1 [Compound 29, 3-((3-(2-(3-Acrylamidopropanamido)ethyl)-5-methoxyphenyl)amino)-6-ethyl-5-((tetrahydro-2H-pyran-4-yl)amino)pyrazine-2-carboxamide] | 10 to 100 | 10 to 100 | > 500 |
| C=CC(=O)N1CCC(C(=O)Nc2cccc(Nc3nc(NC4CCOCC4)c(CC)nc3C(N)=O)c2)C1 (stereo not drawn) [Compound 112, 6-ethyl-3-[3-[(1-prop-2-enoylpyrrolidine-3-carbonyl)amino]anilino]-5-(tetrahydropyran-4-ylamino)pyrazine-2-carboxamide] | 100 to 500 | 100 to 500 | > 500 |
| CCc1nc(C(N)=O)c(Nc2cc(F)cc(O[C@H](C)CNC(=O)C(C)N(C)C(=O)/C=C/CN(C)C)c2)nc1N(C)C (stereo partly drawn) [Compound 155, 5-(dimethylamino)-3-((3-(((2R)-1-(2-((E)-4-(dimethylamino)-N-methylbut-2-enamido)propanamido)propan-2-yl)oxy)-5-fluorophenyl)amino)-6-ethylpyrazine-2-carboxamide] | 10 to 100 | 10 to 100 | > 500 |
| C=CC(=O)N(C)[C@@H](C)C(=O)NCC#Cc1cc(Nc2nc(NC3CCOCC3)c(CC)nc2C(N)=O)cc(OC)c1 [Compound 107, 6-ethyl-3-[3-methoxy-5-[3-[[(2S)-2-[methyl(prop-2-enoyl)amino]propanoyl]amino]prop-1-ynyl]anilino]-5-(tetrahydropyran-4-ylamino)pyrazine-2-carboxamide] | 1 to 10 | 1 to 10 | > 500 |
| C=CC(=O)N(C)[C@@H](C)C(=O)NCCOc1cccc(Nc2nc(NC3CCOCC3)c(CC)nc2C(N)=O)c1 [Compound 38, 6-ethyl-3-[3-[2-[[(2S)-2-[methyl(prop-2-enoyl)amino]propanoyl]amino]ethoxy]anilino]-5-(tetrahydropyran-4-ylamino)pyrazine-2-carboxamide] | 10 to 100 | 1 to 10 | > 500 |
| C#CC(=O)NCCC(=O)NCCc1cc(Nc2nc(NC3CCOCC3)c(CC)nc2C(N)=O)cc(OC)c1 [Compound 31, 6-Ethyl-3-((3-methoxy-5-(2-(3-propiolamidopropanamido)ethyl)phenyl)amino)-5-((tetrahydro-2H-pyran-4-yl)amino)pyrazine-2-carboxamide] | 1 to 10 | < 1 | > 500 |
| C=CC(=O)NCCCCOc1cccc(Nc2nc(NC3CCOCC3)c(CC)nc2C(N)=O)c1 [Compound 1, 3-((3-(4-Acrylamidobutoxy)phenyl)amino)-6-ethyl-5-((tetrahydro-2H-pyran-4-yl)amino)pyrazine-2-carboxamide] | 100 to 500 | 10 to 100 | > 500 |
| CCc1nc(C(N)=O)c(Nc2cncc(CCNC(=O)[C@H](C)N(C)C(=O)/C=C/CN(C)C)c2)nc1C1CC1 [Compound 306, (S,E)-5-cyclopropyl-3-((5-(2-(2-(4-(dimethylamino)-N-methylbut-2-enamido)propanamido)ethyl)pyridin-3-yl)amino)-6-ethylpyrazine-2-carboxamide] | – | – | > 500 |
| CCc1nc(C(N)=O)c(Nc2cccc(CCNC(=O)[C@H](C)N(C)C(=O)/C=C/CNC)c2)nc1N(C)C(C)C [Compound 307, (S,E)-6-ethyl-5-(isopropyl(methyl)amino)-3-((3-(2-(2-(N-methyl-4-(methylamino)but-2-enamido)propanamido)ethyl)phenyl)amino)pyrazine-2-carboxamide] | – | – | > 500 |
| Cc1cc(C(N)=O)c(Nc2cncc(CCNC(=O)[C@H](C)N(C)C(=O)/C=C/CN(C)C)c2)nc1C1CC1 [Compound 323, (S,E)-6-cyclopropyl-2-((5-(2-(2-(4-(dimethylamino)-N-methylbut-2 enamido)propanamido)ethyl)pyridin-3-yl)amino)-5-methylnicotinamide] | – | – | > 500 |

— US20250136558A1, “PYRAZINE COMPOUNDS AS IRREVERSIBLE INHIBITORS OF FLT3” (BIOMEA FUSION, INC., priority 2021, published 2025)
